Assay results as given in patent US8952024B2, “Herbicidal pyrimidone derivatives” (E I du Pont de Nemours and Company, priority 2009, dated 2015).

Experiments:
Assay in all cases: Test B pre-/postemergence plant response
Format in all cases: in vivo
[1] = test system: Italian ryegrass (Lolium multiflorum); conditions: for Plant response rating, Ryegrass, Italian: Postemergence
How it was run: (§1)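 Response scores were assigned visually after 13 to 15 days in a greenhouse, comparing treated pots with controls on a 0–100 scale where 100 denotes complete control. Preemergence treatments went onto freshly seeded loam/sand soil; postemergence treatments onto plants 2 to 18 cm tall.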

[2] = test system: Surinam grass (Brachiaria decumbens); conditions: for Plant response rating, Surinam Grass: Postemergence
How it was run: as §1

[3] = test system: blackgrass (Alopecurus myosuroides); conditions: for Plant response rating, Blackgrass: Postemergence
How it was run: as §1

corn (Zea mays) = conditions: for Plant response rating, Corn: Postemergence
How it was run: as §1

[4] = test system: downy bromegrass (Bromus tectorum); conditions: for Plant response rating, Bromegrass, Downy: Postemergence
How it was run: as §1

[5] = test system: giant foxtail (Setaria faberii); conditions: for Plant response rating, Foxtail, Giant: Postemergence
How it was run: as §1

[6] = test system: johnsongrass (Sorghum halepense); conditions: for Plant response rating, Johnsongrass: Postemergence
How it was run: as §1

kochia (Kochia scoparia) = conditions: for Plant response rating, Kochia: Postemergence
How it was run: as §1

[7] = test system: pigweed (Amaranthus retroflexus); conditions: for Plant response rating, Pigweed: Postemergence
How it was run: as §1

[8] = test system: ragweed (common ragweed, Ambrosia elatior); conditions: for Plant response rating, Ragweed: Postemergence
How it was run: as §1

soybean (Glycine max) = conditions: for Plant response rating, Soybean: Postemergence
How it was run: as §1

[9] = test system: velvetleaf (Abutilon theophrasti); conditions: for Plant response rating, Velvetleaf: Postemergence
How it was run: as §1

[10] = test system: woolly cupgrass (Eriochloa villosa); conditions: for Plant response rating, Cupgrass, Woolly: Postemergence
How it was run: as §1

[11] = 62 g ai/ha, postemergence, 0 is no effect, 100 is complete control, 13 to 15 days
[12] = 31 g ai/ha, 0 to 100 scale (0 no effect, 100 complete control)
[13] = 125 g ai/ha, scale 0 to 100 (0 no effect, 100 complete control)
[14] = 250 g ai/ha, scale 0 to 100 (0 no effect, 100 complete control), 13 to 15 days

COCCn1c(-c2cccc(Cl)c2)ncc(C(=O)C2=C(O)CCCC2=O)c1=O [Compound 147]
Ryegrass, Italian plant response rating (0 to 100 scale) [1, 11]: 5
Plant response rating, Ryegrass, Italian [1, 12]: 5
Plant response rating, Ryegrass, Italian [1, 13]: 30
Plant response rating, Ryegrass, Italian [1, 14]: 40
Surinam Grass plant response rating (0 to 100 scale) [2, 11]: 65
Plant response rating, Surinam Grass [2, 12]: 50
Plant response rating, Surinam Grass [2, 13]: 75
Plant response rating, Surinam Grass [2, 14]: 75
Blackgrass plant response rating (0 to 100 scale) [3, 11]: 40
Plant response rating, Blackgrass [3, 12]: 10
Plant response rating, Blackgrass [3, 13]: 45
Plant response rating, Blackgrass [3, 14]: 55
Corn plant response rating (0 to 100 scale) (corn (Zea mays); [11]): 15
Plant response rating, Corn (corn (Zea mays); [12]): 0
Plant response rating, Corn (corn (Zea mays); [13]): 25
Plant response rating, Corn (corn (Zea mays); [14]): 40
Bromegrass, Downy plant response rating (0 to 100 scale) [4, 11]: 5
Plant response rating, Bromegrass, Downy [4, 12]: 0
Plant response rating, Bromegrass, Downy [4, 13]: 5
Plant response rating, Bromegrass, Downy [4, 14]: 10
Foxtail, Giant plant response rating (0 to 100 scale) [5, 11]: 80
Plant response rating, Foxtail, Giant [5, 12]: 65
Plant response rating, Foxtail, Giant [5, 13]: 85
Plant response rating, Foxtail, Giant [5, 14]: 90
Johnsongrass plant response rating (0 to 100 scale) [6, 11]: 40
Plant response rating, Johnsongrass [6, 12]: 15
Plant response rating, Johnsongrass [6, 13]: 60
Plant response rating, Johnsongrass [6, 14]: 60
Kochia plant response rating (0 to 100 scale) (kochia (Kochia scoparia); [11]): 75
Plant response rating, Kochia (kochia (Kochia scoparia); [12]): 40
Plant response rating, Kochia (kochia (Kochia scoparia); [13]): 80
Plant response rating, Kochia (kochia (Kochia scoparia); [14]): 100
Pigweed plant response rating (0 to 100 scale) [7, 11]: 95
Plant response rating, Pigweed [7, 12]: 85
Plant response rating, Pigweed [7, 13]: 100
Plant response rating, Pigweed [7, 14]: 100
Ragweed plant response rating (0 to 100 scale) [8, 11]: 75
Plant response rating, Ragweed [8, 12]: 20
Plant response rating, Ragweed [8, 13]: 90
Plant response rating, Ragweed [8, 14]: 98
Soybean plant response rating (0 to 100 scale) (soybean (Glycine max); [11]): 60
Plant response rating, Soybean (soybean (Glycine max); [12]): 15
Plant response rating, Soybean (soybean (Glycine max); [13]): 65
Plant response rating, Soybean (soybean (Glycine max); [14]): 85
Velvetleaf plant response rating (0 to 100 scale) [9, 11]: 80
Plant response rating, Velvetleaf [9, 12]: 60
Plant response rating, Velvetleaf [9, 13]: 95
Plant response rating, Velvetleaf [9, 14]: 100
Cupgrass, Woolly plant response rating (0 to 100 scale) [10, 11]: 70
Plant response rating, Cupgrass, Woolly [10, 12]: 65
Plant response rating, Cupgrass, Woolly [10, 13]: 80
Plant response rating, Cupgrass, Woolly [10, 14]: 80
